Experimental data taken from patent publication US6482410B1, “Cytotactin derivatives that stimulate attachment and neurite outgrowth, and methods of making same” (The Scripps Research Institute, priority 1994, dated 2002).
“Also recorded” adds a separate entry of the source. No end group written: not given here.

Tests used:
type I collagen = settings: Dedhar et al. 1987; Hynes 1992; cited from earlier work
[1] = tested on: chicken fibroblast SL29 cells; experiment: Cell attachment inhibition assay, fibroblasts on CT or CT:GST fusion proteins; assay type: cell-based; settings: for inhibition of cell attachment to intact CT: RGD peptides 1 mg/ml, JG22 50 μg/ml, FIG. 2; for effect on cell attachment to CTfg substrate / effect on cell attachment to CTfn3 substrate / effect on cell attachment to CTfn6 substrate: equimolar substrates
Description: In the cell attachment inhibition assay, a single cell suspension was incubated with a potential inhibitor and then allowed to settle for a fixed period of time onto a solid support that has been coated with the different proteins to be tested (Friedlander, et al., J. Cell Biol. 107: 2329-2340 (1988)). After removing the unbound and loosely bound cells by washing, the attachment and morphology of those cells remaining on the dish were analyzed.
In the cell attachment inhibition assays, cells were incubated with soluble RGD peptides and/or a monoclonal antibody prior to incubation with solid support.
The inhibitors tested were the RGD-containing soluble peptides, GRGDSP and GRGDTP and the mAb JG22 (Developmental Studies Hybridoma Bank at Department of Pharmacology and Molecular Sciences, Johns Hopkins University School of Medicine, Baltimore, Md.). JG22 is a mouse hybridoma which binds to many types of chicken cells, including fibroblasts and muscle, and is specific to chicken (Greve, et al., J. Cell. Biochem. 18: 221-229 (1982)). JG22 is known to perturb cell attachment to extracellular matrix proteins and disrupts the function of the β1 integrin.
The cell attachment inhibition assay was performed essentially as described for the cell attachment assay in Example 5.B., but with the following modifications.
The solid support and cells were prepared as described in Example 5.B. Again, the initial assay was performed using only intact CT for the preparation of the solid support. The inhibitors tested, GRGDSP, GRGDTP, and the mAb JG22, were admixed with separate aliquots of the chicken fibroblast SL29 and DRG cells prior to addition to the solid support containing intact CT. The RGD-containing peptides were added at a final concentration of 1 mg/ml. The mAb JG22 was added at a final concentration of 50 μg/ml. A combination of each of the RGD-containing peptides and mAb JG22 were also incubated with the fibroblast and DRG cells. The cells and potential inhibitors were incubated for 10 minutes at room temperature and then added to the solid support. Fibroblast and DRG cells without inhibitors were also added to the solid support.
After incubation at 37° C. in 5% CO2 for 1 hour, the solid supports were washed three times in PBS with gentle swirling to remove unattached cells. The cells attached to the solid support were fixed in 1% (v/v) glutaraldehyde in PBS and viewed by phase contrast microscopy. The attached cells were counted using a 10× objective and with an eyepiece reticle. Cells were counted in four fields per adsorbed protein spot. Each protein was tested in three separate spots. The number of cells bound was expressed as the average of the twelve measurements±the standard deviation.
The cell attachment inhibition assay was repeated as described above but using all of the CT:GST fusion proteins in place of intact CT for the preparation of the solid support as described in Example 1.
Cell attachment assays were performed essentially as follows. The chicken fibroblast cell line SL29 was grown to confluence in DMEM with 10% FCS and penicillin/streptomycin. The cells were passaged the night before the assay and seeded at a density of 1:2. Cells were harvested in calcium, magnesium free Hank's balanced salt solution (CMF-HBSS) with 20 mM Hepes buffer and 5 mM EDTA added. The cells were then washed in attachment buffer (CMF-HBSS, 10 mM Hepes, 1 mM CaCl2, 1 mM MgCl2, 0.1 mM MnCl2, 2% BSA) three times, counted in a hemocytometer, resuspended to a density of 6×10^5 cells/ml. Dorsal root ganglion (DRG) neurons were prepared for attachment assays as described in Example 5, but were washed and resuspended at a density of 6×10^5 cells/ml in attachment buffer. Inhibitors of attachment were added at this time.
To some samples GRGDSP (SEQ ID NO 11) or GRGDTP (SEQ ID NO 12) peptide was added at a concentration of 1 mg/ml. […]

[2] = tested on: dorsal root ganglia (DRG) neurons; experiment: Two-dimensional neurite outgrowth assay, DRG, 15 hours; assay type: cell-based, chicken; settings: DRG neurons
Description: Dorsal root ganglia (DRG) cells or forebrain neurons were prepared for the cell attachment assays as follows. DRG from day 6 chicken embryos or forebrains from day 7 chicken embryos were dissected into HBSS. The tissue was pelleted by centrifugation and resuspended in CMF-HBSS and incubated at 37° C. for 10 minutes. The tissue was pelleted again and resuspended in CMF-HBSS containing 0.08% trypsin and allowed to trypsinize for 20 minutes at 37° C. An equal volume of DMEM/F12, 10% FCS, 20 ng/ml nerve growth factor (NGF) (for DRG cells only), 10 μg/ml gentamycin (10% medium) was added, and the tissue was pelleted and resuspended in 2 ml of the 10% medium. The cells were triturated with a fire-polished Pasteur pipette for 15 strokes, and the cells were washed and resuspended in 10 ml of 10% medium. DRG cells were plated in a 10 cm tissue culture dish and incubated for 1 hour at 37° C. in 5% CO2, to allow for attachment of contaminating fibroblasts.
After replating, the cells were harvested, pelleted and washed three times in DMEM/F12, 1% fetal calf serum (FCS), 20 ng/ml NGF (for DRG cells only), 10 μg/ml gentamycin (1% medium), and the number of cells determined using a hemocytometer. The DRG were resuspended to a density of 6×10^5 cells/ml in attachment buffer. The neurons were resuspended to a density of 2×10^4 cells/ml in 1% medium and added to substrates and placed at 37° C., 5% CO2 for 15 hours.
After the growth period, the dishes were gently rinsed with PBS to remove unbound cells, fixed with 1% glutaraldehyde, and viewed by phase contrast microscopy. Ten to forty cells were analyzed for each substrate. Cells were judged as neurite-bearing if the length of the processes was greater than one cell diameter. All cells with neurites were photographed with a 20× objective and total neurite length per neurite-bearing cell was derived from the photographic prints. Percentage of neuronal sprouting was calculated from at least six experiments. Neurite length was calculated from at least three experiments.
This extensive neurite outgrowth after 40 hours made quantitation of the percentage of neurite-bearing cells and neurite length difficult. To analyze quantitatively the effect of CT/TN fusion proteins on DRG neurite outgrowth, DRG cells were therefore plated at low density on CT/TN or CT/TN fragments and analyzed after 15 hours in culture for the percentage of cells that sprouted neurites greater than one cell diameter and for the everage neurite length per neuron. These conditions enhanced the number of isolated cells and discouraged the cell-cell interactions and fasciculation that occurred in the long-term cultures.
The proteins used in the neurite outgrowth assays are the same as those used in the cell attachment assays. […] In addition, poly-L-lysine was adsorbed to the solid support. […] Any cells adhering to the solid support were examined for sprouting and neurite length as defined herein.
Proteins used in the neurite outgrowth assays were prepared as described in Example 5.A.2.
Dorsal root ganglia (DRG) from day 6 chicken embryos were prepared as described in Example 5.A.4. For the neurite outgrowth assays, the DRG were resuspended at a density of 2×10^4 cells/ml in 1% medium, added to solid support, and placed at 37° C. in 5% CO2 for 15 hours. After the attachment and growth period, the dishes were gently rinsed with PBS to remove unbound cells, fixed with 1% (v/v) glutaraldehyde, and viewed by phase contrast microscopy. Ten to thirty cells were analyzed for each adsorbed protein spot. Cells were judged as neurite-bearing if the length of the processes were greater than one cell diameter. All cells with neurites were photographed with a 40× objective and the total neurite length per neurite-bearing cell was derived from the prints. The percent of cells that were sprouting and the average neurite length was derived from six and three independent experiments, respectively. […]

| Substance | inhibition of cell attachment to collagen I (type I collagen) | inhibition of cell attachment to intact CT [1] [%] | effect on cell attachment to CTfg substrate ([1]; inhibitor added before plating) | effect on cell attachment to CTfn3 substrate ([1]; inhibitor added before plating) | effect on cell attachment to CTfn6 substrate ([1]; inhibitor added before plating) | inhibition of SL29 attachment to CT/TN, further analysis ([1]; 1 mg/ml GRGDTP peptide) [%] | effect on cell attachment to CTfn5-6 substrate ([1]; inhibitor added before plating) | effect on neurite outgrowth on CTfn3 or CTfn6 substrates [2] | effect on neurite outgrowth on polylysine-coated substrates [2] |
| --- | --- | --- | --- | --- | --- | --- | --- | --- | --- |
| Gly-Arg-Gly-Asp-Ser-Pro [GRGDSP] | far less effective inhibitor; also recorded: had no effect; also recorded: generally has no effect | 73 | unaffected | completely inhibited | only partially inhibited; also recorded: could inhibit |  |  |  |  |
| GRGDTP [GRGDTP] | active inhibitor; also recorded: inhibit binding to collagen I | 70 | unaffected | completely inhibited; also recorded: selectively inhibited | not effective; also recorded: ineffective | 33 | unaffected | inhibited neurite outgrowth | not on polylysine-coated substrates |
